Values of other authors in patent publication US8883846B2, “Synthesis of bicyclic compounds and method for their use as therapeutic agents” (priority 2010, dated 2014).

Tested on: influenza A H1N1 viruses, neuraminidase mutation Q136K
Conditions: Australian and South East Asian influenza A H1N1 viruses; cited from earlier work

CCC(CC)[C@H](NC(C)=O)[C@@H]1[C@H](O)[C@@H](C(=O)O)C[C@H]1N=C(N)N [peramivir]
reduction in susceptibility: 70 fold

CC(=O)N[C@H]1[C@H]([C@H](O)[C@H](O)CO)OC(C(=O)O)=C[C@@H]1N=C(N)N [zanamivir]
reduction in susceptibility: 300 fold
